#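 Method: 48-hour compound exposure of cells in 96-well plates, five concentrations, linear interpolation of endpoints. GI50: concentration for 50% inhibition of growth.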 Active and inactive are the calls of the source. Cut-off read from the data, not from the text of the source: active = GI50 up to about 1.1 µM and inactive = higher.
# Legend:
# Experiment in all cases: NCI-60 cell line screen, 48 h
# NCI-H460 = system: NCI-H460
# OVCAR-3 = system: OVCAR-3
# SF-295 = system: SF-295
# SF-539 = system: SF-539
# RPMI-8226 = system: RPMI-8226
# HL-60 = system: HL-60
# Malme-3M = system: Malme-3M
# DU-145 = system: DU-145
# UO-31 = system: UO-31
# NCI-H23 = system: NCI-H23
# Hs-578T = system: Hs-578T
# EKVX = system: EKVX
# A498 = system: A498
# T47D = system: T47D
# NCI/ADR-RES = system: NCI/ADR-RES
# HOP-92 = system: HOP-92
# PC-3 = system: PC-3
# SK-MEL-5 = system: SK-MEL-5
# RXF 393 = system: RXF 393
# HCC 2998 = system: HCC 2998
Structure (SMILES),GI50 (NCI-H460),GI50 (OVCAR-3),GI50 (SF-295),GI50 (SF-539),GI50 (RPMI-8226),GI50 (HL-60),GI50 (Malme-3M),GI50 (DU-145),GI50 (UO-31),GI50 (NCI-H23),GI50 (Hs-578T),GI50 (EKVX),GI50 (A498),GI50 (T47D),GI50 (NCI/ADR-RES),GI50 (HOP-92),GI50 (PC-3),GI50 (SK-MEL-5),GI50 (RXF 393),GI50 (HCC 2998)
Cn1c(=S)c2nc(SCCN3C(=O)c4ccccc4C3=O)[nH]c2n(C)c1=O,92.7 µM (inactive),> 100 µM (inactive),> 100 µM (inactive),> 100 µM (inactive),25.5 µM (inactive),> 100 µM (inactive),> 100 µM (inactive),> 100 µM (inactive),> 100 µM (inactive),> 100 µM (inactive),> 100 µM (inactive),> 100 µM (inactive),> 100 µM (inactive),> 100 µM (inactive),> 100 µM (inactive),> 100 µM (inactive),> 100 µM (inactive),> 100 µM (inactive),> 100 µM (inactive),
Cc1ccc2c(C(=O)c3c(C)n(CCN4CCOCC4)c4ccccc34)cccc2c1,21.1 µM (inactive),3.54 µM (inactive),7.45 µM (inactive),0.156 µM (active),0.0592 µM (active),2.57 µM (inactive),5.98 µM (inactive),27.5 µM (inactive),23.2 µM (inactive),14.8 µM (inactive),4.14 µM (inactive),20.5 µM (inactive),28.6 µM (inactive),17.2 µM (inactive),12.4 µM (inactive),19.1 µM (inactive),11.9 µM (inactive),0.581 µM (active),13.9 µM (inactive),
C[C@@H](C(=O)O)N1C(c2ccco2)=C(/C(C=O)=C\c2ccco2)C(=O)/C1=C\c1ccco1,,> 100 µM (inactive),> 100 µM (inactive),> 100 µM (inactive),> 100 µM (inactive),> 100 µM (inactive),> 100 µM (inactive),> 100 µM (inactive),> 100 µM (inactive),> 100 µM (inactive),> 100 µM (inactive),> 100 µM (inactive),> 100 µM (inactive),> 100 µM (inactive),> 100 µM (inactive),> 100 µM (inactive),> 100 µM (inactive),> 100 µM (inactive),> 100 µM (inactive),
Cc1ccc(C(=O)OCC(C)C)cc1/N=N/N(C)C,> 100 µM (inactive),28.6 µM (inactive),27 µM (inactive),> 86.7 µM (inactive),77.6 µM (inactive),34.2 µM (inactive),> 100 µM (inactive),> 100 µM (inactive),41.3 µM (inactive),34.8 µM (inactive),> 100 µM (inactive),> 100 µM (inactive),,35.3 µM (inactive),97.1 µM (inactive),> 65 µM (inactive),48.4 µM (inactive),> 60.4 µM (inactive),,> 100 µM (inactive)
CC(=O)/C(=C\NC(=S)Nc1ccc(S(N)(=O)=O)cc1)C(=O)Nc1ccccc1C,27 µM (inactive),64.7 µM (inactive),36 µM (inactive),74 µM (inactive),30.3 µM (inactive),16.1 µM (inactive),,57.7 µM (inactive),32.4 µM (inactive),71.3 µM (inactive),61.8 µM (inactive),66.5 µM (inactive),,28.7 µM (inactive),> 100 µM (inactive),37.3 µM (inactive),38.2 µM (inactive),44 µM (inactive),37.1 µM (inactive),54.8 µM (inactive)
N/C(=N\c1ccc(Cl)cc1)NS(=O)(=O)c1ccc(-c2ccccn2)s1,17.7 µM (inactive),22.8 µM (inactive),17.5 µM (inactive),14.9 µM (inactive),16.9 µM (inactive),,12.4 µM (inactive),17 µM (inactive),17.7 µM (inactive),15.9 µM (inactive),24.8 µM (inactive),12.1 µM (inactive),12.5 µM (inactive),12.8 µM (inactive),18.1 µM (inactive),13 µM (inactive),14.2 µM (inactive),15.8 µM (inactive),16.8 µM (inactive),
CC/C(=N\NC(=O)c1cccnc1)c1ccc2c(c1)OCCO2,> 100 µM (inactive),> 100 µM (inactive),> 100 µM (inactive),> 100 µM (inactive),> 100 µM (inactive),> 100 µM (inactive),28.4 µM (inactive),> 100 µM (inactive),> 100 µM (inactive),> 100 µM (inactive),12.4 µM (inactive),64.1 µM (inactive),> 100 µM (inactive),> 100 µM (inactive),> 100 µM (inactive),,> 100 µM (inactive),33.7 µM (inactive),> 100 µM (inactive),
Cc1ccc(/C(Cl)=C/C=C(C#N)C#N)cc1,3.8 µM (inactive),1.93 µM (inactive),13.3 µM (inactive),2.64 µM (inactive),2.35 µM (inactive),2 µM (inactive),3.85 µM (inactive),11.3 µM (inactive),4.58 µM (inactive),1.76 µM (inactive),2.16 µM (inactive),10.1 µM (inactive),,4.23 µM (inactive),2.18 µM (inactive),3.26 µM (inactive),4.01 µM (inactive),1.8 µM (inactive),2.61 µM (inactive),
Cn1c2c(c3c(=O)[nH]ncc31)CCCc1ccccc1-2,23.6 µM (inactive),26.8 µM (inactive),32.5 µM (inactive),35.7 µM (inactive),17.4 µM (inactive),0.0817 µM (active),22.5 µM (inactive),37.9 µM (inactive),22.6 µM (inactive),37.7 µM (inactive),20.9 µM (inactive),11.8 µM (inactive),22.4 µM (inactive),38.9 µM (inactive),36.7 µM (inactive),12.9 µM (inactive),26.1 µM (inactive),16.1 µM (inactive),,
CN1CN(c2ccccc2)C2(CCN(Cc3nc4ccccc4s3)CC2)C1=O,,15.7 µM (inactive),17.9 µM (inactive),17.8 µM (inactive),16 µM (inactive),11.4 µM (inactive),17.8 µM (inactive),17.9 µM (inactive),14.6 µM (inactive),18.1 µM (inactive),18.7 µM (inactive),20.9 µM (inactive),15.9 µM (inactive),16.2 µM (inactive),15.5 µM (inactive),15 µM (inactive),14.2 µM (inactive),16.1 µM (inactive),14.6 µM (inactive),
COC(=O)c1cccc2c1Oc1ccccc1S2,44.3 µM (inactive),> 100 µM (inactive),60.8 µM (inactive),55.1 µM (inactive),61.1 µM (inactive),8.18 µM (inactive),,> 100 µM (inactive),31.8 µM (inactive),,40.6 µM (inactive),39.4 µM (inactive),85.3 µM (inactive),32.3 µM (inactive),34.4 µM (inactive),25.8 µM (inactive),63.2 µM (inactive),18.9 µM (inactive),33 µM (inactive),
O=C(CNCc1ccccc1)Oc1c(Cl)c(Cl)c(Cl)c(Cl)c1Cl,38.9 µM (inactive),22.5 µM (inactive),27.2 µM (inactive),32.3 µM (inactive),,23.8 µM (inactive),26 µM (inactive),15.9 µM (inactive),20.6 µM (inactive),> 100 µM (inactive),17.3 µM (inactive),22.4 µM (inactive),,25.7 µM (inactive),33.7 µM (inactive),,22.1 µM (inactive),,74.8 µM (inactive),22.8 µM (inactive)
Oc1ccc2oc3c(O)c4ccccc4cc3c2c1,23.5 µM (inactive),3.53 µM (inactive),,1.75 µM (inactive),1.31 µM (inactive),2.28 µM (inactive),11.4 µM (inactive),3.27 µM (inactive),0.695 µM (active),10.6 µM (inactive),23.2 µM (inactive),,2.45 µM (inactive),20.3 µM (inactive),3.03 µM (inactive),10.7 µM (inactive),4.06 µM (inactive),2.85 µM (inactive),2.44 µM (inactive),
O=C(Oc1ccc(C(c2c(O)c3ccccc3oc2=O)c2c(O)c3ccccc3oc2=O)cc1)c1ccc(C(=O)c2ccccc2)cc1,22.1 µM (inactive),18.3 µM (inactive),22 µM (inactive),17.3 µM (inactive),22.6 µM (inactive),,,29.1 µM (inactive),17.8 µM (inactive),18.5 µM (inactive),37.7 µM (inactive),16.7 µM (inactive),,34.5 µM (inactive),17.3 µM (inactive),,18.7 µM (inactive),29.3 µM (inactive),27.3 µM (inactive),18.8 µM (inactive)
N#Cc1cc(N(CCCl)CCCl)c([N+](=O)[O-])cc1[N+](=O)[O-],18.6 µM (inactive),> 100 µM (inactive),> 100 µM (inactive),> 100 µM (inactive),38.2 µM (inactive),22.3 µM (inactive),60.8 µM (inactive),32.4 µM (inactive),> 100 µM (inactive),> 100 µM (inactive),> 100 µM (inactive),> 100 µM (inactive),> 100 µM (inactive),11.4 µM (inactive),> 100 µM (inactive),> 100 µM (inactive),> 100 µM (inactive),> 100 µM (inactive),,
Cc1occc(=O)c1O [MALTOL],> 100 µM (inactive),> 100 µM (inactive),> 100 µM (inactive),> 100 µM (inactive),> 100 µM (inactive),> 100 µM (inactive),> 100 µM (inactive),> 100 µM (inactive),> 100 µM (inactive),> 100 µM (inactive),> 100 µM (inactive),> 100 µM (inactive),,> 100 µM (inactive),> 100 µM (inactive),> 100 µM (inactive),> 100 µM (inactive),> 100 µM (inactive),,> 100 µM (inactive)
